Target: T1, AmtB, an E. coli ammonia channel (Escherichia coli, UniProt P69681)
T1 construct: HIS (polyhistidine) (N, cleaved yes); MBP (N, cleaved yes); TEV site (N, cleaved yes); made in house; host or cells: E. coli
Assay: Lipid exchange-mass spectrometry (LX-MS) between AmtB nanodiscs and tagged empty nanodiscs
Format: binding
Details: for optimal ratio for AmtB POPC/POPG (isolipid point) / lipid preference of AmtB (in words): LX-MS; for lipid preference of AmtB (in words) / isolipid point (mole fraction where Xp−Xt=0): POPC/POPG nanodiscs; for isolipid point (mole fraction where Xp−Xt=0): exchange at room temperature (21-23° C.) over 2.8 days, sigmoidal fit of Xt versus Xp−Xt
Procedure: AmtB, an E. coli ammonia channel, was incorporated into untagged nanodiscs with 50/50 1-palmitoyl-2-oleoyl-sn-glycero-3-phosphocholine (POPC)/1-palmitoyl-2-oleoyl-sn-glycero-3-phospho-(1′-racglycerol) (POPG). Polyhistidine-tagged empty nanodiscs without AmtB were also prepared at various POPC/POPG ratios ranging from 0 to 100% POPC. In one embodiment, the ratios were 0%, 20%, 40%, 50%, 60%, 80%, and 100% POPC Tagged empty nanodiscs were mixed with untagged AmtB nanodiscs, and the mixture was allowed to exchange at room temperature (21-23° C.) over 2.8 days. After exchange, internal standards containing PC and PG lipids with different tail lengths were added, and the total lipid mole fraction of POPC, Xt, was measured (tagged and untagged) by direct infusion MS. Then, the tagged empty nanodiscs were removed by passing the mixture over immobilized metal affinity chromatography (IMAC) beads, and the untagged AmtB nanodiscs were measured alone to determine the lipid mole fraction in the membrane protein nanodiscs, Xp. Preliminary experiments confirmed that the exchange was within experimental error (typically 2-4% absolute mole fraction) by 2.8 days, but a full examination of kinetics was not performed due to limited amounts of sample.
At high total POPC, AmtB shifted the equilibrium to acquire more POPG in the AmtB nanodiscs. Conversely, at low POPC levels, AmtB shifted the equilibrium to enrich the AmtB nanodiscs in POPC.
After establishing that AmtB remodels the local membrane environment, Xt versus Xp−Xt was fit to a sigmoidal curve and the x-intercept where Xp−Xt=0 was determined. At this mole fraction, which is termed the isolipid point, the lipid composition of the membrane protein nanodiscs is the same as the empty nanodiscs. The composition of the annular lipids matches the bulk lipid bilayer at the isolipid point.
The 50% POPC AmtB nanodiscs were mixed with empty nanodiscs assembled with the polyhistidine tagged MSP1E3D1 in POPC/(POPC+POPG) mole fractions of 0, 20, 40, 60, 80, or 100% at a 1:1 molar ratio and a final concentration of 2.3 μM AmtB nanodiscs. To extend the titration to a lower total POPC mole fraction (Xt), the AmtB nanodiscs were mixed with 0% POPC empty nanodiscs at a 1:2.6 molar ratio while keeping the AmtB nanodiscs at 2.3 μM. The mixtures were incubated at room temperature (21-23° C.) for 2.8 days to allow the lipid exchange to reach equilibrium. […] Control experiments were also performed using 50% POPC untagged empty nanodiscs mixed with empty nanodiscs assembled with the polyhistidine-tagged MSP1E3D1 in POPC/(POPC+POPG) mole fractions of 0, 20, 40, 60, 80, or 100% at a 1:1 molar ratio and a final concentration of 2.3 μM MSP as well as at a 1:2.6 molar ratio with 0% nanodiscs.
After exchanging, tagged empty nanodiscs and untagged (either empty or AmtB) nanodiscs were separated by IMAC using a Ni-NTA His SpinTrap (GE Healthcare). Because small exchange volumes of roughly 16 μL were used, around ⅓ of the 100 μL column volume was removed for a final column volume around 66 μL. The SpinTrap was prepared by three washes of 450 μL loading buffer (20 mM imidazole, 0.2 M ammonium acetate, pH 7.6) to equilibrate the column. Prior to addition to the beads, the imidazole concentration of the exchange mixture was adjusted to 20 mM by adding a 1 M imidazole solution (pH 7.6 adjusted with acetic acid) to limit the non-specific binding of the untagged nanodiscs. Then, the exchange reaction mixture was added to the IMAC beads and allowed to incubate for 1-2 minutes at 4° C. The flow-through was removed by centrifugation at 100 g for 45 seconds, and extra loading buffer of 20 μL was added to the column and washed under the same centrifugation procedures. […] Thus, the first wash was collected for MS analysis to maximize the lipid concentration. Around 20 μL was typically recovered. After separation, the His SpinTrap was cleaned with three washes of 450 μL elution buffer (400 mM imidazole, 0.2 M ammonium acetate, pH 7.8). […]

T1 sequence (P69681 23-428): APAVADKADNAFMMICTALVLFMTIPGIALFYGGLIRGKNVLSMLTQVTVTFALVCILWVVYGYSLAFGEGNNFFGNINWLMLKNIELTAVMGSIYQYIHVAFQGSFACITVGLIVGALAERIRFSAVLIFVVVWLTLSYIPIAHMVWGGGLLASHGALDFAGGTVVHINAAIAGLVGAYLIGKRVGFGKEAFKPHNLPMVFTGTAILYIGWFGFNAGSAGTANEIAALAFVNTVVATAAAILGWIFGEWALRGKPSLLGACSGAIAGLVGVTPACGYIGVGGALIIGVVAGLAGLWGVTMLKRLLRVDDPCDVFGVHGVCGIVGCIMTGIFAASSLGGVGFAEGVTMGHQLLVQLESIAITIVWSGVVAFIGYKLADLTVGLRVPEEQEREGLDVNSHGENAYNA

## CCCCCCCC/C=C\CCCCCCCC(=O)O[C@H](COC(=O)CCCCCCCCCCCCCCC)COP(=O)(O)OCC(O)CO (mixture of isomers) [POPG, 1-palmitoyl-2-oleoyl-sn-glycero-3-phospho-(1′-racglycerol)]
  optimal ratio for AmtB POPC/POPG (isolipid point): 76
  lipid preference of AmtB (in words): clear preference for POPG
  isolipid point (mole fraction where Xp−Xt=0): 76±2%

## CCCCCCCC/C=C\CCCCCCCC(=O)O[C@H](COC(=O)CCCCCCCCCCCCCCC)COP(=O)([O-])OCC[N+](C)(C)C [POPC, 1-palmitoyl-2-oleoyl-sn-glycero-3-phosphocholine]
  optimal ratio for AmtB POPC/POPG (isolipid point): 24
  lipid preference of AmtB (in words): some affinity for POPC
  isolipid point (mole fraction where Xp−Xt=0): 24±2%

— patent publication US12596108B2, “Automated lipid exchange-mass spectrometry systems and methods” (ARIZONA BOARD OF REGENTS ON BEHALF OF THE UNIVERSITY OF …, priority 2020, dated 2026)
